# Legend:
# [1] = system: DIGSA (large crabgrass); test: Pre-plant incorporated (PPI) herbicidal activity, warm season; type: in vivo, Digitaria sanguinalis
# In short: (§1)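 Soil-incorporated application: seeds sat beneath a cover layer into which the compound had been sprayed and mixed. Greenhouse growth used a 30/21° C or 18/13° C day/night regime depending on season type. Around 14 days later, inhibition was estimated as a percentage of untreated growth.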
# [2] = system: POAAN (annual bluegrass); test: Pre-plant incorporated (PPI) herbicidal activity, cool season; type: in vivo, Poa annua; conditions: weed, PPI application
# In short: as §1
# [3] = system: ABUTH (velvetleaf); test: Pre-plant incorporated (PPI) herbicidal activity, warm season; type: in vivo, Abutilon theophrasti
# In short: as §1
# [4] = system: CHEAL (common lambsquarters); test: Pre-emergence herbicidal activity, warm season; type: in vivo, Chenopodium album; conditions: GR80 = lowest tested rate (300, 100, 30, 10 g/ha) with 80% or greater inhibition; approx. 14 days after treating; 30/21° C.
# In short: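 GR80 values derive from percent inhibition relative to untreated plants, read roughly 14 days after sowing and pre-emergence soil-surface treatment (compound in 50:50 acetone/water; rates typically 10, 30, 100, 300 g/ha). Warm-season weeds grew at 30/21° C day/night, cool-season ones at 18/13° C; an asterisk marks activity without reaching 80% at the highest rate.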
# [5] = system: STEME (common chickweed); test: Pre-plant incorporated (PPI) herbicidal activity, cool season; type: in vivo, Stellaria media; conditions: for Percent inhibition STEME: weed, PPI application
# In short: as §1
# [6] = system: AEGCY (jointed goatgrass); test: as above; type: in vivo, Aegilops cylindrica
# In short: as §1
# [7] = system: oilseed rape (BRSNS); test: Selectivity test, PPI, cool season crop; type: in vivo, Brassica napus; conditions: PPI application
# In short: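 Percent inhibition relative to untreated controls, assessed roughly 14 days post-planting. Seeds were covered with a soil layer into which solvent-borne compound had been sprayed and mixed. Plants were then grown at 30/21° C. (warm season) or 18/13° C. (cool season) day/night regimes.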
# [8] = system: SORVU (shattercane); test: Pre-emergence herbicidal activity, warm season; type: in vivo, Sorghum vulgare; conditions: GR80 = lowest tested rate (300, 100, 30, 10 g/ha) with 80% or greater inhibition; approx. 14 days after treating; 30/21° C.
# In short: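 Activity is expressed as the rate giving 80% inhibition, with 300, 100, 30 and 10 g/ha typically tested. An asterisk marks activity short of 80% at the top rate. Warm-season grasses were held at 30/21 °C; cool-season blackgrass and wild buckwheat at 18/13 °C; scoring at about 14 days.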
# [9] = system: SORVU (shattercane); test: Pre-plant incorporated (PPI) herbicidal activity, warm season; type: in vivo, Sorghum vulgare
# In short: as §1
# [10] = system: DATST (jimsonweed); test: as above; type: in vivo, Datura stramonium
# In short: as §1
# [11] = pre-plant incorporated, lowest tested rate with 80% or greater inhibition, about 14 days
# [12] = pre-plant incorporated, GR80 = lowest tested rate with 80% or greater inhibition, approx. 14 days after treating, 30/21° C.
smiles,measurement,setting,value
C=C(Br)CC(F)(F)S(=O)(=O)c1ncn(C(=O)N(CC)CC)n1 [Example 19],inhibition at 30 g/ha,"[1]; Digitaria sanguinalis, PPI application, 30 g/ha, read-out: Percent inhibition DIGSA",40%
same,inhibition at 100 g/ha,"[1]; Digitaria sanguinalis, PPI application, 100 g/ha, read-out: Percent inhibition DIGSA",90%
same,inhibition at 300 g/ha,"[1]; Digitaria sanguinalis, PPI application, 300 g/ha, read-out: Percent inhibition DIGSA",90%
same,inhibition at 900 g/ha,"[1]; Digitaria sanguinalis, PPI application, 900 g/ha, read-out: Percent inhibition DIGSA",99%
same,"PPI activity GR80, DIGSA",[1]; [11],30 g/ha
same,inhibition at 10 g/ha,"[2]; Poa annua, 10 g/ha, read-out: Percent inhibition POAAN",0%
same,inhibition at 30 g/ha,"[2]; Poa annua, 30 g/ha, read-out: Percent inhibition POAAN",0%
same,inhibition at 100 g/ha,"[2]; Poa annua, 100 g/ha, read-out: Percent inhibition POAAN",10%
same,inhibition at 300 g/ha,"[2]; Poa annua, 300 g/ha, read-out: Percent inhibition POAAN",100%
same,inhibition at 900 g/ha,"[2]; Poa annua, 900 g/ha, read-out: Percent inhibition POAAN",100%
same,inhibition at 10 g/ha,"[3]; Abutilon theophrasti, PPI application, 10 g/ha, read-out: Percent inhibition ABUTH",0%
same,inhibition at 30 g/ha,"[3]; Abutilon theophrasti, PPI application, 30 g/ha, read-out: Percent inhibition ABUTH",0%
same,inhibition at 100 g/ha,"[3]; Abutilon theophrasti, PPI application, 100 g/ha, read-out: Percent inhibition ABUTH",0%
same,inhibition at 300 g/ha,"[3]; Abutilon theophrasti, PPI application, 300 g/ha, read-out: Percent inhibition ABUTH",0%
same,inhibition at 900 g/ha,"[3]; Abutilon theophrasti, PPI application, 900 g/ha, read-out: Percent inhibition ABUTH",60%
same,PPI activity (GR80) ABUTH,[3]; [12],30 g/ha
same,Pre-emergence activity (GR80) CHEAL,[4],100 g/ha
same,"PPI activity GR80, STEME",[5]; [11],100 g/ha
same,inhibition at 10 g/ha,"[6]; Aegilops cylindrica, weed, PPI application, 10 g/ha, read-out: Percent inhibition AEGCY",0%
same,inhibition at 30 g/ha,"[6]; Aegilops cylindrica, weed, PPI application, 30 g/ha, read-out: Percent inhibition AEGCY",0%
same,inhibition at 100 g/ha,"[6]; Aegilops cylindrica, weed, PPI application, 100 g/ha, read-out: Percent inhibition AEGCY",20%
same,inhibition at 300 g/ha,"[6]; Aegilops cylindrica, weed, PPI application, 300 g/ha, read-out: Percent inhibition AEGCY",50%
same,inhibition at 900 g/ha,"[6]; Aegilops cylindrica, weed, PPI application, 900 g/ha, read-out: Percent inhibition AEGCY",20%
same,"PPI activity GR80, AEGCY",[6]; [11],300 g/ha
same,inhibition at 10 g/ha,"[7]; Brassica napus, 10 g/ha, read-out: Percent inhibition BRSNS",0%
same,inhibition at 30 g/ha,"[7]; Brassica napus, 30 g/ha, read-out: Percent inhibition BRSNS",0%
same,inhibition at 100 g/ha,"[7]; Brassica napus, 100 g/ha, read-out: Percent inhibition BRSNS",0%
same,inhibition at 300 g/ha,"[7]; Brassica napus, 300 g/ha, read-out: Percent inhibition BRSNS",60%
same,inhibition at 900 g/ha,"[7]; Brassica napus, 900 g/ha, read-out: Percent inhibition BRSNS",95%
same,Pre-emergence activity (GR80) SORVU,[8],300 g/ha
same,inhibition at 10 g/ha,"[9]; Sorghum bicolor, PPI application, 10 g/ha, read-out: Percent inhibition SORVU",30%
same,inhibition at 30 g/ha,"[9]; Sorghum bicolor, PPI application, 30 g/ha, read-out: Percent inhibition SORVU",50%
same,inhibition at 100 g/ha,"[9]; Sorghum bicolor, PPI application, 100 g/ha, read-out: Percent inhibition SORVU",65%
same,inhibition at 300 g/ha,"[9]; Sorghum bicolor, PPI application, 300 g/ha, read-out: Percent inhibition SORVU",100%
same,inhibition at 900 g/ha,"[9]; Sorghum bicolor, PPI application, 900 g/ha, read-out: Percent inhibition SORVU",100%
same,"PPI activity GR80, SORVU",[9]; [11],300 g/ha
same,inhibition at 10 g/ha,"[10]; Datura stramonium, PPI application, 10 g/ha, read-out: Percent inhibition DATST",0%
same,inhibition at 30 g/ha,"[10]; Datura stramonium, PPI application, 30 g/ha, read-out: Percent inhibition DATST",0%
same,inhibition at 100 g/ha,"[10]; Datura stramonium, PPI application, 100 g/ha, read-out: Percent inhibition DATST",0%
same,inhibition at 300 g/ha,"[10]; Datura stramonium, PPI application, 300 g/ha, read-out: Percent inhibition DATST",90%
same,inhibition at 900 g/ha,"[10]; Datura stramonium, PPI application, 900 g/ha, read-out: Percent inhibition DATST",99%
same,PPI activity (GR80) DATST,[10]; [12],300 g/ha
CCN(CC)C(=O)n1cnc(S(=O)(=O)C(F)(F)Cl)n1 [Example 3],Percent inhibition DIGSA,"[1]; PPI application, 30 g/ha",70%
same,Percent inhibition DIGSA,"[1]; PPI application, 100 g/ha",100%
same,Percent inhibition DIGSA,"[1]; PPI application, 300 g/ha",100%
same,Percent inhibition DIGSA,"[1]; PPI application, 900 g/ha",100%
same,Percent inhibition POAAN,[2]; 30 g/ha,70%
same,Percent inhibition POAAN,[2]; 100 g/ha,100%
same,Percent inhibition POAAN,[2]; 300 g/ha,100%
same,Percent inhibition POAAN,[2]; 900 g/ha,100%
same,Percent inhibition ABUTH,"[3]; PPI application, 30 g/ha",0%
same,Percent inhibition ABUTH,"[3]; PPI application, 100 g/ha",0%
same,Percent inhibition ABUTH,"[3]; PPI application, 300 g/ha",30%
same,Percent inhibition ABUTH,"[3]; PPI application, 900 g/ha",60%
same,Pre-emergence activity (GR80) CHEAL,[4],100 g/ha
same,Percent inhibition STEME,[5]; 30 g/ha,60%
same,Percent inhibition STEME,[5]; 100 g/ha,80%
same,Percent inhibition STEME,[5]; 300 g/ha,100%
same,Percent inhibition STEME,[5]; 900 g/ha,100%
same,Percent inhibition AEGCY,"[6]; weed, PPI application, 30 g/ha",0%
same,Percent inhibition AEGCY,"[6]; weed, PPI application, 100 g/ha",50%
same,Percent inhibition AEGCY,"[6]; weed, PPI application, 300 g/ha",40%
same,Percent inhibition AEGCY,"[6]; weed, PPI application, 900 g/ha",90%
same,Percent inhibition BRSNS,[7]; 30 g/ha,100%
same,Percent inhibition BRSNS,[7]; 100 g/ha,100%
same,Percent inhibition BRSNS,[7]; 300 g/ha,100%
same,Percent inhibition BRSNS,[7]; 900 g/ha,100%
same,Pre-emergence activity (GR80) SORVU,[8],100 g/ha
same,Percent inhibition SORVU,"[9]; PPI application, 30 g/ha",70%
same,Percent inhibition SORVU,"[9]; PPI application, 100 g/ha",95%
same,Percent inhibition SORVU,"[9]; PPI application, 300 g/ha",100%
same,Percent inhibition SORVU,"[9]; PPI application, 900 g/ha",100%
same,Percent inhibition DATST,"[10]; PPI application, 30 g/ha",0%
same,Percent inhibition DATST,"[10]; PPI application, 100 g/ha",30%
same,Percent inhibition DATST,"[10]; PPI application, 300 g/ha",70%
same,Percent inhibition DATST,"[10]; PPI application, 900 g/ha",100%

# — patent publication US6461997B1, “Triazole sulfones having herbicidal activity” (Monsanto Technology LLC, priority 1999, dated 2002)
